Measurements published in ChEMBL document CHEMBL6134783, “Discovery of hybrid Glypromate conjugates with neuroprotective activity against paraquat-induced toxicity” (RSC Med Chem, 2024).
The source made the active and inactive calls. The rule behind the calls is not given here.

Key:
[1] = system: SH-SY5Y; assay: Neuroprotective activity against 6-OHDA-induced cytotoxicity in differentiated human SH-SY5Y cells at 100 uM incubated for 48 hrs by MTT reduction assay relative to control; type: functional
[2] = system: SH-SY5Y; assay: Neuroprotective activity against PQ-induced cytotoxicity in differentiated human SH-SY5Y cells assessed as viable cells at 100 uM incubated for 48 hrs by MTT reduction assay (reference value: 46.02 +/- 3.61%); type: functional; conditions: read-out: Activity
[3] = system: SH-SY5Y; assay: Neuroprotective activity against 6-OHDA-induced cytotoxicity in differentiated human SH-SY5Y cells at 100 uM incubated for 48 hrs by NR uptake assay; type: functional, cell-based
[4] = Neurotoxicity against retinoic acid/TPA differentiated human SH-SY5Y cells assessed as reduction in cell viability at 100 uM measured after 48 hrs by MTT assay relative to control; type: toxicity, cell-based
[5] = Neurotoxicity against non-differentiated human SH-SY5Y cells assessed as reduction in cell viability at 100 uM measured after 24 hrs by MTT assay relative to control; type: toxicity, cell-based
[6] = system: SH-SY5Y; assay: Neuroprotective activity against PQ-induced cytotoxicity in differentiated human SH-SY5Y cells assessed as NR uptake at 100 uM incubated for 48 hrs by NR uptake assay (reference value: 36.78 +/- 9.57%); type: functional
[7] = system: SH-SY5Y; assay: Neuroprotective activity in amyloid beta (25 to 35)-induced non-differentiated human SH-SY5Y cells assessed as reduction in protein aggregation at 100 uM incubated for 24 hrs by ThT fluorescence assay relative to control; type: functional
[8] = system: SH-SY5Y; assay: Neuroprotective activity against PQ-induced cytotoxicity in differentiated human SH-SY5Y cells at 100 uM incubated for 48 hrs by MTT reduction assay; type: functional; design: scale not given: the % may be the effect or the level left
[9] = system: SH-SY5Y; assay: Neuroprotective activity against PQ-induced cytotoxicity in differentiated human SH-SY5Y cells at 100 uM incubated for 48 hrs by NR uptake assay; type: functional
[10] = system: SH-SY5Y; assay: Neuroprotective activity against 6-OHDA-induced cytotoxicity in differentiated human SH-SY5Y cells assessed as NR uptake at 100 uM incubated for 48 hrs by NR uptake assay (reference value: 61.31 +/- 12.93%); type: functional

For `COC(=O)CC[C@H](NC(=O)[C@@H]1[C@H]2CC[C@H](C2)N1C(=O)CNC(=O)OC(C)(C)C)C(=O)NC12CC3CC(C)(CC(C)(C3)C1)C2`, which Activity [1] is on record?
The Activity was “inactive”.

What about the viability at 100 µM [2] of the same compound?
The viability at 100 µM was 38.8%.

And the Activity [3]?
The Activity was “inactive”.

What about the “Cell viability (% of control)” value [4] of the same compound?
Its value is 98.1%.

With `COC(=O)[C@H](CCC(=O)NC12CC3CC(C)(CC(C)(C3)C1)C2)NC(=O)[C@@H]1[C@H]2CC[C@H](C2)N1C(=O)CN.O=C(O)C(F)(F)F` as the compound, how does the Activity [5] read?
Its Activity is 32.77%.

For `COC(=O)[C@H](CCC(=O)N[C@@H]1CCc2ccccc21)NC(=O)[C@@H]1[C@H]2CC[C@H](C2)N1C(=O)CNC(=O)OC(C)(C)C`, which Activity [1] is on record?
The Activity was “inactive”.

What about the Activity [3] of the same compound?
The Activity was “inactive”.

What about the “Cell viability (% of control)” value [4] of the same compound?
The value was 94.07%.

What about the Activity [5] of the same compound?
Its Activity is 32.77%.

For `COC(=O)[C@H](CCC(=O)NC12CC3CC(CC(C3)C1)C2)NC(=O)[C@@H]1[C@H]2CC[C@H](C2)N1C(=O)CN.O=C(O)C(F)(F)F`, which Activity [1] is on record?
The Activity was “inactive”.

And the Activity [6]?
Its Activity is 40.94%.

What about the Activity [3] of the same compound?
The Activity was “inactive”.

What about the “Cell viability (% of control)” value [4] of the same compound?
The value was 96.82%.

What about the Activity [5] of the same compound?
The Activity was 89.15%.

What does the source list for `COC(=O)[C@H](CCC(=O)N[C@@H]1CCc2ccccc21)NC(=O)[C@@H]1[C@H]2CC[C@H](C2)N1C(=O)CN(C)C`?
Activity [1]: inactive; Activity [7]: inactive; Activity [3]: inactive; Activity [8]: 12%; Activity [9]: <=15%; Cell viability (% of control) [4]: 96.47%; Activity [5]: 90.95%

What does the source list for `COC(=O)CC[C@H](NC(=O)[C@@H]1[C@H]2CC[C@H](C2)N1C(=O)CNC(=O)OC(C)(C)C)C(=O)N[C@@H]1CCc2ccccc21`?
Activity [7]: inactive; Activity [5]: 86.49%

For `COC(=O)CC[C@H](NC(=O)[C@@H]1CCCN1C(=O)CN)C(=O)N[C@@H]1CCc2ccccc21`, which Activity [7] is on record?
The Activity was “Active”.

For `COC(=O)[C@H](CCC(=O)N[C@@H]1CCc2ccccc21)NC(=O)[C@@H]1CCCN1C(=O)CN`, which Activity [7] is on record?
Its Activity is “Active”.

Which Activity [1] does the source give for `COC(=O)CC[C@H](NC(=O)[C@@H]1[C@H]2CC[C@H](C2)N1C(=O)CN)C(=O)NC12CC3CC(CC(C3)C1)C2.O=C(O)C(F)(F)F` here?
The Activity was “inactive”.

What about the Activity [7] of the same compound?
Its Activity is 20%.

What about the Activity [3] of the same compound?
The Activity was “inactive”.

What about the Activity [8] of the same compound?
The Activity was 5%.

What about the “Cell viability (% of control)” value [4] of the same compound?
Its value is 102.46%.

And the Activity [5]?
The Activity was 93.91%.

Which Activity [1] does the source give for `COC(=O)CC[C@H](NC(=O)[C@@H]1[C@H]2CC[C@H](C2)N1C(=O)CN(C)C)C(=O)N[C@@H]1CCc2ccccc21` here?
Its Activity is “inactive”.

What about the Activity [3] of the same compound?
The Activity was “inactive”.

And the “Cell viability (% of control)” value [4]?
The value was 100.56%.

Which Activity [5] does the source give for `COC(=O)[C@H](CCC(=O)NC12CC3CC(CC(C3)C1)C2)NC(=O)[C@@H]1[C@H]2CC[C@H](C2)N1C(=O)CNC(=O)OC(C)(C)C` here?
The Activity was 89.94%.

With `COC(=O)[C@H](CCC(=O)NC12CC3CC(C)(CC(C)(C3)C1)C2)NC(=O)[C@@H]1[C@H]2CC[C@H](C2)N1C(=O)CN(C)C` as the compound, how does the “Cell viability (% of control)” value [4] read?
Its value is 9.07%.

What about the Activity [5] of the same compound?
Its Activity is 32.77%.

What does the source list for `COC(=O)CC[C@H](NC(=O)[C@@H]1[C@H]2CC[C@H](C2)N1C(=O)CN)C(=O)N[C@@H]1CCc2ccccc21.O=C(O)C(F)(F)F`?
Activity [1]: inactive; Activity [7]: inactive; Activity [6]: 40.76%; Activity [3]: inactive; Activity [8]: 4%; Cell viability (% of control) [4]: 98.48%; Activity [5]: 96.04%

Which results are given for `COC(=O)CC[C@H](NC(=O)[C@@H]1[C@H]2CC[C@H](C2)N1C(=O)CN(C)C)C(=O)NC12CC3CC(CC(C3)C1)C2`?
Activity [7]: 24%; Activity [5]: 97.93%

With `COC(=O)[C@H](CCC(=O)NC12CC3CC(CC(C3)C1)C2)NC(=O)[C@@H]1CCCN1C(=O)CN` as the compound, how does the Activity [7] read?
Its Activity is “inactive”.

For `N[C@@H]1CCc2ccccc21`, which viability at 100 µM [2] is on record?
Its viability at 100 µM is 23.6%.

And the Activity [6]?
Its Activity is 22.95%.

What does the source list for `NCC(=O)N1CCC[C@H]1C(=O)N[C@@H](CCC(=O)O)C(=O)O`?
Activity [1]: 12%; Activity [7]: 12%; Activity [10]: 25.32%; viability at 100 µM [2]: 25.3%; Activity [6]: 36.33%

With `COC(=O)CC[C@H](NC(=O)[C@@H]1[C@H]2CC[C@H](C2)N1C(=O)CNC(=O)OC(C)(C)C)C(=O)NC12CC3CC(CC(C3)C1)C2` as the compound, how does the Activity [5] read?
The Activity was 90.79%.

With `NC12CC3CC(CC(C3)C1)C2` [AMANTADINE] as the compound, how does the Activity [7] read?
The Activity was 17%.
